In PubChem BioAssay (NCI) one finds GI50 and TGI data, which are given here for six compounds.

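A five-concentration, 48-hour dose response in 96-well plates underlies each endpoint, interpolated linearly between surrounding concentrations. The concentration for 50% growth inhibition is given as GI50. TGI is the concentration that stops growth completely.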

Test systems include HCT-116 colon; EKVX NSCLC; RXF 393 renal; NCI/ADR-RES ovarian; SNB-19 CNS; UACC-62 melanoma; SF-268 CNS; OVCAR-5 ovarian; SNB-75 CNS; A498 renal.
Common to all, as to assay: NCI tumour cell line growth inhibition, 48 h

Regarding `COc1ccc(/C=C/c2c(C(=O)/C=C/c3ccccc3)c(C)nc3ccccc23)cc1`, the GI50 in the assay on HCT-116 colon is 1.03 µM; in the assay with EKVX NSCLC, 1.77 µM; with RXF 393 renal, 1.63 µM; in the assay with NCI/ADR-RES ovarian it was 2.51 µM; in the assay on SNB-19 CNS, 1.66 µM; with UACC-62 melanoma, 1.61 µM. For the same compound, the GI50 was 2.18 µM in the assay on SF-268 CNS, 1.91 µM with OVCAR-5 ovarian, 1.46 µM in the assay on SNB-75 CNS and 1.7 µM with A498 renal. Moreover, the TGI is 2.6 µM in the assay with HCT-116 colon; 3.56 µM in the assay on EKVX NSCLC; 3.04 µM with RXF 393 renal; 7.52 µM with NCI/ADR-RES ovarian; 3.07 µM in the assay on SNB-19 CNS; 3.11 µM in the assay with UACC-62 melanoma. The TGI was determined as 5.65 µM in the assay with SF-268 CNS, 3.65 µM in the assay on OVCAR-5 ovarian, 4.44 µM in the assay on SNB-75 CNS and 3.15 µM with A498 renal.

`COCC[C@H]1CCC/C=C/[C@@H]2C[C@H](O)C[C@H]2[C@H](O)/C=C/C(=O)O1`: the GI50 in the assay with HCT-116 colon was 0.149 µM; in the assay on EKVX NSCLC, 0.114 µM; in the assay with RXF 393 renal, 0.0219 µM; in the assay on NCI/ADR-RES ovarian, 0.0472 µM; with SNB-19 CNS it was 0.191 µM; in the assay on UACC-62 melanoma it was 0.0425 µM. The GI50 was 0.0488 µM in the assay with SF-268 CNS, 0.247 µM in the assay with OVCAR-5 ovarian, 0.0423 µM in the assay on SNB-75 CNS and 0.0231 µM in the assay with A498 renal. In addition, the TGI in the assay with HCT-116 colon was 0.332 µM; in the assay with EKVX NSCLC it was > 100 µM; in the assay with RXF 393 renal it was 0.0539 µM; with SNB-19 CNS, > 100 µM; with UACC-62 melanoma it was > 100 µM; with SF-268 CNS it was > 100 µM. The TGI in the assay with OVCAR-5 ovarian was > 100 µM; in the assay with SNB-75 CNS it was > 100 µM; in the assay with A498 renal, 0.107 µM.

For the compound `NS(=O)(=O)c1ccc(-c2ccc3c(NC(=O)C4CC4)n[nH]c3c2)cc1`, the GI50 in the assay on HCT-116 colon, in the assay with EKVX NSCLC, with RXF 393 renal, with NCI/ADR-RES ovarian, in the assay with SNB-19 CNS and in the assay on UACC-62 melanoma was > 25 µM in each case. Moreover, the GI50 in the assay on SF-268 CNS, with OVCAR-5 ovarian, in the assay with SNB-75 CNS and in the assay on A498 renal was > 25 µM in each case. Further, the TGI in the assay with HCT-116 colon, in the assay on EKVX NSCLC, in the assay on RXF 393 renal, with NCI/ADR-RES ovarian, in the assay with SNB-19 CNS and with UACC-62 melanoma was > 25 µM in each case. The TGI in the assay with SF-268 CNS, in the assay with OVCAR-5 ovarian, in the assay with SNB-75 CNS and in the assay on A498 renal was > 25 µM in each case.

`COc1cc2ncnc(-n3ncc4cc(NC(=O)Nc5ccccc5)ccc43)c2cc1OC`: the GI50 with HCT-116 colon was 1.41 µM; in the assay with EKVX NSCLC, 1.59 µM; with RXF 393 renal it was 1.04 µM; with NCI/ADR-RES ovarian, 2.52 µM; in the assay on SNB-19 CNS it was 2.29 µM; in the assay with UACC-62 melanoma it was 1.23 µM. Moreover, the GI50 in the assay on SF-268 CNS is 1.55 µM; in the assay on OVCAR-5 ovarian, 1.24 µM; in the assay with SNB-75 CNS, 0.191 µM; with A498 renal, 0.21 µM. In addition, the TGI is 4.82 µM in the assay on HCT-116 colon; 7.3 µM in the assay with EKVX NSCLC; 2.76 µM with RXF 393 renal; 17.6 µM in the assay with NCI/ADR-RES ovarian; 17.7 µM in the assay on SNB-19 CNS; 6.27 µM in the assay on UACC-62 melanoma. Further, the TGI is 11.2 µM with SF-268 CNS, 13.8 µM with OVCAR-5 ovarian, 5.69 µM in the assay with SNB-75 CNS and 0.896 µM in the assay on A498 renal.

Take `CC(C)c1ccc(-c2cc(-c3cn[nH]c3-c3ccccn3)ccn2)cc1`: the GI50 is 10.3 µM with HCT-116 colon; 11.3 µM in the assay with EKVX NSCLC; > 18.5 µM in the assay on RXF 393 renal; 7.98 µM in the assay with NCI/ADR-RES ovarian; 20.5 µM with SNB-19 CNS; 17.2 µM in the assay on UACC-62 melanoma. In addition, the GI50 in the assay with SF-268 CNS is 14.9 µM; in the assay on OVCAR-5 ovarian, > 16.6 µM; with SNB-75 CNS, > 9.11 µM; with A498 renal, > 13.6 µM. For the same compound, the TGI in the assay with HCT-116 colon, with EKVX NSCLC, with RXF 393 renal, in the assay on NCI/ADR-RES ovarian, in the assay with SNB-19 CNS and in the assay on UACC-62 melanoma was > 25 µM in each case. For the same compound, the TGI in the assay on SF-268 CNS, in the assay with OVCAR-5 ovarian, with SNB-75 CNS and in the assay on A498 renal was > 25 µM in each case.

For the compound `C=CCCCCC/C=C\[C@@H](O)C#CC#C/C=C/CO`, the GI50 in the assay with HCT-116 colon was 45.7 µM; in the assay on EKVX NSCLC, > 100 µM; in the assay with RXF 393 renal it was > 100 µM; in the assay on NCI/ADR-RES ovarian, > 100 µM; with SNB-19 CNS, > 100 µM; in the assay on UACC-62 melanoma, > 100 µM. Moreover, the GI50 was 39 µM in the assay with SF-268 CNS, > 100 µM in the assay on OVCAR-5 ovarian, 0.536 µM with SNB-75 CNS and > 100 µM in the assay with A498 renal. The TGI with HCT-116 colon, in the assay with EKVX NSCLC, with RXF 393 renal, in the assay with NCI/ADR-RES ovarian, with SNB-19 CNS and in the assay on UACC-62 melanoma was > 100 µM each time. Further, the TGI in the assay on SF-268 CNS, in the assay on OVCAR-5 ovarian, with SNB-75 CNS and in the assay with A498 renal was > 100 µM each time.
